As usually defined, the melting point is the temperature of the solid-liquid transition.

Each structure is given as a SMILES string.

`CC(C)Oc1ccc(NC(=N)c2cccs2)cc1CN1CCCC1` [Example 21, N-[4-Isopropoxy-3-(1-pyrrolidinylmethyl)phenyl]-2-thiophenecarboximidamide] gave a melting point of 138 to 140 °C.

Source of the values: US20020137736A1, “Novel compounds” (priority 1999, published 2002).
